Laboratory results reported in PubChem BioAssay (NCI).
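48-hour exposure; five concentrations; linearly interpolated endpoints. TGI is the concentration that stops growth completely.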

Columns and labels:
Assay in all cases: NCI anticancer screen, dose series, 48 h
UACC-62 melanoma = test system: UACC-62 melanoma
KM20L2 colon = test system: KM20L2 colon
HCT-116 colon = test system: HCT-116 colon
SNB-78 CNS = test system: SNB-78 CNS
SNB-75 CNS = test system: SNB-75 CNS
HCC-2998 colon = test system: HCC-2998 colon
LXFL 529 NSCLC = test system: LXFL 529 NSCLC
DLD-1 colon = test system: DLD-1 colon
NCI-H226 lung = test system: NCI-H226 lung
NCI-H522 lung = test system: NCI-H522 lung
MDA-MB-435 = test system: MDA-MB-435
DU-145 prostate = test system: DU-145 prostate
T-47D breast = test system: T-47D breast
MCF7 breast = test system: MCF7 breast
A498 renal = test system: A498 renal
MDA-MB-231 breast = test system: MDA-MB-231 breast
MDA-N = test system: MDA-N
PC-3 prostate = test system: PC-3 prostate
NCI/ADR-RES ovarian = test system: NCI/ADR-RES ovarian
SF-295 CNS = test system: SF-295 CNS

## O=C1CCC(c2ccc(Cl)cc2)=NN1c1nsc2ccccc12
UACC-62 melanoma
  TGI: > 100 µM
KM20L2 colon
  TGI: > 100 µM
HCT-116 colon
  TGI: 51.2 µM
SNB-78 CNS
  TGI: 78.7 µM
SNB-75 CNS
  TGI: 56 µM
HCC-2998 colon
  TGI: 44.8 µM
LXFL 529 NSCLC
  TGI: 81.4 µM

## N#CC(NC12CC3CC(CC(C3)C1)C2)c1ccccc1C(F)(F)F (configuration not stated)
DLD-1 colon
  TGI: > 100 µM
KM20L2 colon
  TGI: > 100 µM
HCT-116 colon
  TGI: > 100 µM
NCI-H226 lung
  TGI: > 100 µM
HCC-2998 colon
  TGI: > 100 µM
LXFL 529 NSCLC
  TGI: > 100 µM
NCI-H522 lung
  TGI: > 100 µM

## O=C1C=CC[C@H]2O[C@@H](COC(=O)Cc3ccccc3)C[C@H]2O1
MDA-MB-435
  TGI: > 100 µM
DU-145 prostate
  TGI: > 100 µM
UACC-62 melanoma
  TGI: > 100 µM
T-47D breast
  TGI: > 100 µM
MCF7 breast
  TGI: > 100 µM
A498 renal
  TGI: > 100 µM
MDA-MB-231 breast
  TGI: > 100 µM
MDA-N
  TGI: > 100 µM
PC-3 prostate
  TGI: > 100 µM
NCI-H226 lung
  TGI: > 100 µM
SNB-75 CNS
  TGI: 77.2 µM
NCI/ADR-RES ovarian
  TGI: > 100 µM
SF-295 CNS
  TGI: > 100 µM
